{"source": "ChEMBL document CHEMBL5696441", "about": "(Nat Chem Biol, 2011)", "key": {"[1]": {"tested_on": "Phosphatidylinositol 4,5-bisphosphate 3-kinase catalytic subunit alpha isoform (Homo sapiens), P42336 [H1047L]", "sequence (P42336 whole entry H1047L, canonical isoform)": "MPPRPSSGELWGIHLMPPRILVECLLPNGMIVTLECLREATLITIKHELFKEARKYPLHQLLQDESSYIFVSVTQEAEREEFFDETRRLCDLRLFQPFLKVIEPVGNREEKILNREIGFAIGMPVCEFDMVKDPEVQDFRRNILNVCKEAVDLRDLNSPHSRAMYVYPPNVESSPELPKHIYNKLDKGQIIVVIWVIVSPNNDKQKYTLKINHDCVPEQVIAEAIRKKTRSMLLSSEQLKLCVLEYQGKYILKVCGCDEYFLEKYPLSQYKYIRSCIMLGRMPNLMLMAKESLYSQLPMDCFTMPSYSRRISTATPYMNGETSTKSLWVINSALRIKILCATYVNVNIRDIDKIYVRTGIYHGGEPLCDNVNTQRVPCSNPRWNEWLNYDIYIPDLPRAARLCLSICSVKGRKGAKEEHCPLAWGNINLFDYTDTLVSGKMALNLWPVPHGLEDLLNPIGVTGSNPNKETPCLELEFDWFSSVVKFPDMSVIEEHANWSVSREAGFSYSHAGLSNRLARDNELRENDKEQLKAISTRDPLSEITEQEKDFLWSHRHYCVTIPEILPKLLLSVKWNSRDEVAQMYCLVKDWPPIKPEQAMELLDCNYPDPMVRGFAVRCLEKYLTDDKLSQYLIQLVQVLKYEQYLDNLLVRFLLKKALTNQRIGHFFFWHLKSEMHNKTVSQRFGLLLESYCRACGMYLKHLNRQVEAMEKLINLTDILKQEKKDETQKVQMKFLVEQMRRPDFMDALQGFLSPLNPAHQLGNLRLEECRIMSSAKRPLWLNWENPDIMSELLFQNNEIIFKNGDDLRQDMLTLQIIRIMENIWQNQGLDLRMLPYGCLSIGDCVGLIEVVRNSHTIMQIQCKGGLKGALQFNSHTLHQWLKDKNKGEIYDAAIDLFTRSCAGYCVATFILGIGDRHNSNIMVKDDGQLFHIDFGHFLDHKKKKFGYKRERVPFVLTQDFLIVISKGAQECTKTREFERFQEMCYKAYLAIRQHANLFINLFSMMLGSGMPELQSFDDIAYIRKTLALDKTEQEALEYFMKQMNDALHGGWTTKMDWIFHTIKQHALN", "test": "Inhibition of PIK3CA H1047L mutant (unknown origin) assessed as remaining activity at 1 uM by Kinome scan method relative to control"}, "[2]": {"target": "Casein kinase I isoform gamma-1 (Homo sapiens) (UniProt Q9HCP0)", "sequence (Q9HCP0 whole entry, looked up, canonical isoform)": "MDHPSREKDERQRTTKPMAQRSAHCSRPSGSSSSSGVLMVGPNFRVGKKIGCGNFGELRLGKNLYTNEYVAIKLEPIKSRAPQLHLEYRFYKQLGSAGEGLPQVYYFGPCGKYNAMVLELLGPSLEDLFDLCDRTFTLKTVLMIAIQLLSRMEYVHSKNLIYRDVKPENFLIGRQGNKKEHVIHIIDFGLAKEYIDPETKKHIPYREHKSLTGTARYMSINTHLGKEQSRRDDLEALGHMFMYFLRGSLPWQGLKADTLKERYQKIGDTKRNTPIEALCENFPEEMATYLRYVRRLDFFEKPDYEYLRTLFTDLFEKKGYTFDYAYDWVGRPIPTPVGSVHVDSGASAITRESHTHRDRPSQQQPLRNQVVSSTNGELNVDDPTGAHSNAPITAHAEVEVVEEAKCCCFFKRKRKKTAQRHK", "test": "Inhibition of CSNK1G1 (unknown origin) assessed as remaining activity at 1 uM by Kinome scan method relative to control"}, "[3]": {"target": "LIM domain kinase 2 (Homo sapiens) (UniProt P53671)", "sequence (P53671 whole entry, looked up, the tested form may be a part)": "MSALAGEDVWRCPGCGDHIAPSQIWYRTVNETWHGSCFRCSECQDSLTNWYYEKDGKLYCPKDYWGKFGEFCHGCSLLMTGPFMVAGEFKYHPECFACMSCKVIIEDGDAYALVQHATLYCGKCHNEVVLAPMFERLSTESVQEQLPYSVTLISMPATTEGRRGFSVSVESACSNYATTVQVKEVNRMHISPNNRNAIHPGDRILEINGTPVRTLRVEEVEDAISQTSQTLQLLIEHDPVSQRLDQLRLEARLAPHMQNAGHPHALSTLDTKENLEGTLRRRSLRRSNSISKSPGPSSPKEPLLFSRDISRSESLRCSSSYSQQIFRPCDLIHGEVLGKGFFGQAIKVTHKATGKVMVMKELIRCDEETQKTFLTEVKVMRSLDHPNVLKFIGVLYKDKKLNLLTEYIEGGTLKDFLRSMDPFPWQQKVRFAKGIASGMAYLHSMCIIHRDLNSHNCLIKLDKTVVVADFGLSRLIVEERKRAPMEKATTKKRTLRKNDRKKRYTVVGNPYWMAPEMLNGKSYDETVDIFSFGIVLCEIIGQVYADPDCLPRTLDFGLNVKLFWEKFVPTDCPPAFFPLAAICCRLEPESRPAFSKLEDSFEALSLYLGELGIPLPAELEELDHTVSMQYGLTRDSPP", "test": "Inhibition of LIMK2 (unknown origin) assessed as remaining activity at 1 uM by Kinome scan method relative to control"}, "[4]": {"target": "T1, Tyrosine-protein kinase JAK3 (Homo sapiens) (UniProt P52333)", "T1 sequence (whole entry)": "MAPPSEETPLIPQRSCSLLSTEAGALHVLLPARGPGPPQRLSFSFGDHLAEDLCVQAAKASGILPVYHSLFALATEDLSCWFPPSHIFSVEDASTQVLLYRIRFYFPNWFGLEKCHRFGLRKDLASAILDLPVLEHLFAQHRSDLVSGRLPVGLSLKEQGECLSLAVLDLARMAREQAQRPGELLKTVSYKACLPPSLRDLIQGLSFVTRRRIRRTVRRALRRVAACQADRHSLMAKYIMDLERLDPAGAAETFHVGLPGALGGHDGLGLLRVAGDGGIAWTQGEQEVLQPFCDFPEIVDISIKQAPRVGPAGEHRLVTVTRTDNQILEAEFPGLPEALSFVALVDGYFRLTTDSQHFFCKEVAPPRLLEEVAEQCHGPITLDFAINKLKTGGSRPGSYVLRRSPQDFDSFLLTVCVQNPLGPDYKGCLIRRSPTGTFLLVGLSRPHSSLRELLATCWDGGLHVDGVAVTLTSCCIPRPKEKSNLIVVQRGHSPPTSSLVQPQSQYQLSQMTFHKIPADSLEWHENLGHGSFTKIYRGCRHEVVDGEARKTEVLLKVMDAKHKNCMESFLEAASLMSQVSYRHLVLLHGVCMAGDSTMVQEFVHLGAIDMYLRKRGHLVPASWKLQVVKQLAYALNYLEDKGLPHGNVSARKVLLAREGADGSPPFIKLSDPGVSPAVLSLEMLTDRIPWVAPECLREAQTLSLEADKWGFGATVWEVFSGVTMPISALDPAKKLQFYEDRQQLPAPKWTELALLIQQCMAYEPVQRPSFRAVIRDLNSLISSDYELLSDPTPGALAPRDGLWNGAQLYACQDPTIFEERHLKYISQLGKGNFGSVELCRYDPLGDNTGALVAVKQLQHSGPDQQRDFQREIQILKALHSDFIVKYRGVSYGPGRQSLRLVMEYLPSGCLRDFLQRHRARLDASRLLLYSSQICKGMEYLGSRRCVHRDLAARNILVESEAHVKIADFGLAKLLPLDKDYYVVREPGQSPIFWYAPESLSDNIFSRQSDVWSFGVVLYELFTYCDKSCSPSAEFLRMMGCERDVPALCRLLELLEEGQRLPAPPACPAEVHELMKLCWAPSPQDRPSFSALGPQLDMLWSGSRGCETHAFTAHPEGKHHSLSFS", "test": "Inhibition of JAK3 JH1 domain (unknown origin) assessed as remaining activity at 1 uM by Kinome scan method relative to control"}, "[5]": {"target": "Serine/threonine-protein kinase DCLK3 (Homo sapiens) (UniProt Q9C098)", "sequence (Q9C098 whole entry)": "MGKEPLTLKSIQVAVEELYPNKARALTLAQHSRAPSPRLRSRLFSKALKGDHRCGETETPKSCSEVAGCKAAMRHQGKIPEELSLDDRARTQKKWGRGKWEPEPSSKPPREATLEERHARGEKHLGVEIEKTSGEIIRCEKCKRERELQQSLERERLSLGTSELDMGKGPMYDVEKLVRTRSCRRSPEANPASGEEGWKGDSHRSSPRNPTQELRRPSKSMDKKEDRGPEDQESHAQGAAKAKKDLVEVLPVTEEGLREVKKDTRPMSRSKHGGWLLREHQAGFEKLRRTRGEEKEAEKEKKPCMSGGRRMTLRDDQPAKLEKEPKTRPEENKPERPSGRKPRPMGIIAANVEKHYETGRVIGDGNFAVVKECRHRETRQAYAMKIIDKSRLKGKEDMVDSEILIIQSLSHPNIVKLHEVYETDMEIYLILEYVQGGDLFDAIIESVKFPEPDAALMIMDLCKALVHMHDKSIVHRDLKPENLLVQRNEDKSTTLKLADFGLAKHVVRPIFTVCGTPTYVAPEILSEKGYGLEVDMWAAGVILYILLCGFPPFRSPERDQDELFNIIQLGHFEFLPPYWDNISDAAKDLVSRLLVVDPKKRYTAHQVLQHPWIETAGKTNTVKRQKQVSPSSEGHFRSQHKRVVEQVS", "test": "Inhibition of DCAMKL3 (unknown origin) assessed as remaining activity at 1 uM by Kinome scan method relative to control"}, "[6]": {"target": "Bone morphogenetic protein receptor type-1A (Homo sapiens) (UniProt P36894)", "sequence (P36894 whole entry)": "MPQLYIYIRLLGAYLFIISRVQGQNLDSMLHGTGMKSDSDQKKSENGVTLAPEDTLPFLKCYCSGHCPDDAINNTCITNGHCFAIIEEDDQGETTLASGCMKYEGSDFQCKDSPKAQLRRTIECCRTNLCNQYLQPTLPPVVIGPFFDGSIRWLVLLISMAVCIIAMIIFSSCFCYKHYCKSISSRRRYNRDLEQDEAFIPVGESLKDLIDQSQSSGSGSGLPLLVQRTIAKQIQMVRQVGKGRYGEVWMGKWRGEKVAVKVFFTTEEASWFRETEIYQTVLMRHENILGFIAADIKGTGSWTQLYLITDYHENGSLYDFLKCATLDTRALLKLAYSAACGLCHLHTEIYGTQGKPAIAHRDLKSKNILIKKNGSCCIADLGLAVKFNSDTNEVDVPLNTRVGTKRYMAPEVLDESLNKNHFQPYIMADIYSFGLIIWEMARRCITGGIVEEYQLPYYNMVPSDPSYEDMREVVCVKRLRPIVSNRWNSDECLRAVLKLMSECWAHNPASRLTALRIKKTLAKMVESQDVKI", "test": "Inhibition of BMPR1A (unknown origin) assessed as remaining activity at 1 uM by Kinome scan method relative to control"}, "[7]": {"target": "T2, MAP/microtubule affinity-regulating kinase 4 (Homo sapiens) (UniProt Q96L34)", "T2 sequence (whole entry)": "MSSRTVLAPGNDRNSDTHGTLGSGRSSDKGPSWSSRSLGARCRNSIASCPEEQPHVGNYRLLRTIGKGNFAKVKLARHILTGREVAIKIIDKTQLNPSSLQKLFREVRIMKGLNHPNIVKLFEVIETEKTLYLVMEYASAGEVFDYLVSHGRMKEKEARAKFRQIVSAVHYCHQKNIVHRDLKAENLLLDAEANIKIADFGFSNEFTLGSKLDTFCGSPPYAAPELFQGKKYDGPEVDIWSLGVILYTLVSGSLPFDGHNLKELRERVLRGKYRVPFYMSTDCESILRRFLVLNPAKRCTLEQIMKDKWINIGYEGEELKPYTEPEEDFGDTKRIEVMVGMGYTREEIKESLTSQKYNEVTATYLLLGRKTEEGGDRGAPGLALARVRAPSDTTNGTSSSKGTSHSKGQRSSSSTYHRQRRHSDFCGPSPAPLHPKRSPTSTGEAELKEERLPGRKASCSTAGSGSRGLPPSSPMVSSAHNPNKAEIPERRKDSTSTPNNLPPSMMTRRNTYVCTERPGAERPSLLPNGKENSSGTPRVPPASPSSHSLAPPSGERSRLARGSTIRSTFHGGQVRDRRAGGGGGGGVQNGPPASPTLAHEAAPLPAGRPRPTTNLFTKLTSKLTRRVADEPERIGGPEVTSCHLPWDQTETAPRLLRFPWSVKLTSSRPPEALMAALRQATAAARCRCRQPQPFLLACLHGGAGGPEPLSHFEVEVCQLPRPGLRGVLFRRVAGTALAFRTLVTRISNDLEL", "test": "Inhibition of MARK4 (unknown origin) assessed as remaining activity at 1 uM by Kinome scan method relative to control"}, "[8]": {"target": "Serine/threonine-protein kinase 32C (Homo sapiens) (UniProt Q86UX6)", "sequence (Q86UX6 whole entry)": "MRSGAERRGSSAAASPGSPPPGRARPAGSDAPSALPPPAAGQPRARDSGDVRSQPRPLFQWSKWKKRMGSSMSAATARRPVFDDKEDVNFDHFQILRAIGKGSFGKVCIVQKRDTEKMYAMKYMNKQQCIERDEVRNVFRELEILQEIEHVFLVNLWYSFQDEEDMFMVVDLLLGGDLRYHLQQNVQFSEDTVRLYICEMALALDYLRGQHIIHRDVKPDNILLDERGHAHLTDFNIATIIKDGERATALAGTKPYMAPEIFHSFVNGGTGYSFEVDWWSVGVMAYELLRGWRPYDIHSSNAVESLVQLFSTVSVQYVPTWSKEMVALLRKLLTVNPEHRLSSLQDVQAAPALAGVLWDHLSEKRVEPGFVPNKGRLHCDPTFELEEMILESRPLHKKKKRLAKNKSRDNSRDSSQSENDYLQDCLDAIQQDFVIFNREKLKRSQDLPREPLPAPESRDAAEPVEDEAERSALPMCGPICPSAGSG", "test": "Inhibition of YANK3 (unknown origin) assessed as remaining activity at 1 uM by Kinome scan method relative to control"}, "[9]": {"target": "Serine/threonine-protein kinase/endoribonuclease IRE1 (Homo sapiens) (UniProt O75460)", "sequence (O75460 19-977 limits assumed)": "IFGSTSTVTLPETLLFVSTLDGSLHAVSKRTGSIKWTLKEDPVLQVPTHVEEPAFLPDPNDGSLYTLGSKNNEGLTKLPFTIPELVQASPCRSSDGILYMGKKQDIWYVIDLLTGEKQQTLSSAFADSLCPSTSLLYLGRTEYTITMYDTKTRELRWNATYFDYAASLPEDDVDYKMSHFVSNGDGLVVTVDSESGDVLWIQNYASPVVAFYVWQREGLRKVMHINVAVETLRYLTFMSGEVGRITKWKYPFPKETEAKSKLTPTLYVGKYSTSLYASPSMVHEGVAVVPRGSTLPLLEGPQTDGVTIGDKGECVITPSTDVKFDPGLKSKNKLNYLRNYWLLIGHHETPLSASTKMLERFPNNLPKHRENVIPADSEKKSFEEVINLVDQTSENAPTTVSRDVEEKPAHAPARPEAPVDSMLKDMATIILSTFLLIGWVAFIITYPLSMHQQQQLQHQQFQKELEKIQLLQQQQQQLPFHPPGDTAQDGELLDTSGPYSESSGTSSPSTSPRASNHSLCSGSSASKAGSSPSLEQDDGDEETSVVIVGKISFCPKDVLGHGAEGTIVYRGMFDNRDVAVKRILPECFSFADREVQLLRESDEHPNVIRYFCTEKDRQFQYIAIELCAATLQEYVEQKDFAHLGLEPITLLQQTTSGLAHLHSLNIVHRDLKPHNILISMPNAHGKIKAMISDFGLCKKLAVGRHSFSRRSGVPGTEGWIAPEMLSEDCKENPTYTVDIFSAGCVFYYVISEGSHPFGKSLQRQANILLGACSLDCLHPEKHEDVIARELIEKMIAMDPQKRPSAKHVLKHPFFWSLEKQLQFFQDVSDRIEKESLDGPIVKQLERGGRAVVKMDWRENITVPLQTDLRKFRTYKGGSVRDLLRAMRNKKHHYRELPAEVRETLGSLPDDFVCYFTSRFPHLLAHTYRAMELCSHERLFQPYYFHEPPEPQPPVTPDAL", "test": "Inhibition of ERN1 (unknown origin) assessed as remaining activity at 1 uM by Kinome scan method relative to control"}}, "data": [{"smiles": "Nc1ccccc1Nc1ccc2c(c1)CCc1ccccc1C2=O", "values": [{"measurement": "Activity", "setting": "[1]", "result": 84, "unit": "%"}, {"measurement": "Activity", "setting": "[2]", "result": 79, "unit": "%"}, {"measurement": "Activity", "setting": "[3]", "result": 94, "unit": "%"}, {"measurement": "Activity", "setting": "[4]", "result": 96, "unit": "%"}, {"measurement": "Activity", "setting": "[5]", "result": 91, "unit": "%"}, {"measurement": "Activity", "setting": "[6]", "result": 98, "unit": "%"}, {"measurement": "Activity", "setting": "[7]", "result": 90, "unit": "%"}, {"measurement": "Activity", "setting": "[8]", "result": 96, "unit": "%"}, {"measurement": "Activity", "setting": "[9]", "result": 98, "unit": "%"}]}, {"smiles": "O=C1c2ccc(Nc3ccc(F)cc3F)cc2CCc2ccc(OC[C@H](O)CO)cc21", "note": "[Skepinone-L]", "values": [{"measurement": "Activity", "setting": "[1]", "result": 95, "unit": "%"}, {"measurement": "Activity", "setting": "[2]", "result": 90, "unit": "%"}, {"measurement": "Activity", "setting": "[3]", "result": 100, "unit": "%"}, {"measurement": "Activity", "setting": "[4]", "result": 91, "unit": "%"}, {"measurement": "Activity", "setting": "[5]", "result": 99, "unit": "%"}, {"measurement": "Activity", "setting": "[6]", "result": 100, "unit": "%"}, {"measurement": "Activity", "setting": "[7]", "result": 100, "unit": "%"}, {"measurement": "Activity", "setting": "[8]", "result": 99, "unit": "%"}, {"measurement": "Activity", "setting": "[9]", "result": 100, "unit": "%"}]}]}
